# In US6254889A, “Solid dispersion dosage form of amorphous xanthine derivative and enteric-coating polymer” (Kyowa Hakko Kogyo Co., Ltd., priority 1995, dated 2001):
# Assay: Comparative absorbability test, oral administration to beagles (pharmacokinetics)
# Type: in vivo
# Settings: male beagle, oral with 20 ml water, 0-24 h, in terms of 3 mg/kg (doses given: Examples 6-8 3 mg/kg, crystal 6 mg/kg, Comparative Example 1 4 mg/kg)
structure (smiles),measurement,value
CCCn1c(=O)c2[nH]c(C34CC5CC(CC3C5)C4)nc2n(CCC)c1=O [Compound No. 1],"The Area under the Plasma Concentration Curve, Intact Drug (in terms of 3 mg/kg)",69.9 ± 2.6 ng·h/mL
